IC50 data for 1 molecule are collected here from ChEMBL document CHEMBL1938361, “Elaborate ligand-based modeling and subsequent synthetic exploration unveil new nanomolar Ca2+/calmodulin-dependent protein kinase II inhibitory leads” (Bioorg Med Chem, 2012).

As a reminder, the IC50 is the point on the concentration scale where inhibition reaches its midpoint.

This test concerns the target Calcium/calmodulin-dependent protein kinase type II subunit delta (Homo sapiens, UniProt Q13557). Briefly: Inhibition of human recombinant CAMK2delta using tetramethylbenzidine as substrate by spectrophotometry analysis.

Chain of Calcium/calmodulin-dependent protein kinase type II subunit delta (Q13557 whole entry): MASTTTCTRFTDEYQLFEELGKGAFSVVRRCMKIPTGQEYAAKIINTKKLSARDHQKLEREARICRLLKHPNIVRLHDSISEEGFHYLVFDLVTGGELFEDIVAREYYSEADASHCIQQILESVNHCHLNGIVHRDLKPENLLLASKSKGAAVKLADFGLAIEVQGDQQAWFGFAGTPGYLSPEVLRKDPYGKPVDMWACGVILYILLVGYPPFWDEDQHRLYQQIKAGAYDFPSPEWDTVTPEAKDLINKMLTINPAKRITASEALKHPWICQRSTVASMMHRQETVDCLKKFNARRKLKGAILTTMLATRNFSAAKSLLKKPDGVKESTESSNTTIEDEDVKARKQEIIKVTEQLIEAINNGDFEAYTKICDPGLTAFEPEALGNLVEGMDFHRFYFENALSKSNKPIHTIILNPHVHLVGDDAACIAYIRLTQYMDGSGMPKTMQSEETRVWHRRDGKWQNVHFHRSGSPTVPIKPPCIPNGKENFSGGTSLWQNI

In the case of `CN([C@@H](Cc1ccc(OS(=O)(=O)c2cccc3cnccc23)cc1)C(=O)N1CCN(c2ccccc2)CC1)S(=O)(=O)c1cccc2cnccc12`, the IC50 is 0.38 µM.
